This passage reports IC50 and EC50 results from US12162867B2, “Inhibitors of RNA helicase DHX9 and uses thereof” (ACCENT THERAPEUTICS, INC., priority 2022, dated 2024).

Where two headings read alike, the source gives them in different places. Some results are limits rather than exact numbers.

Holding throughout (format): cell-based
The test system of one assay is LS411N cells. The assay is described as follows: DHX9 cellular proliferation assay (CellTiter-Glo), LS411N (CRC-MSI). The note with it: Homo sapiens, LS-411N, read-out: LS411N (CRC-MSI-H) Antiproliferative IC50.
For the next assay, the system named is NCI-H747 cells. The assay is described as follows: DHX9 cellular proliferation assay (CellTiter-Glo), NCI-H747 (CRC-MSS). The note with it: Homo sapiens.
For assay [1], the system named is circBRIP1 in HCT116 cells. The assay is described as follows: DHX9 circBRIP1 cellular target engagement TaqMan Multiplex assay (qPCR). The note with it: Homo sapiens.
Where [2] appears, read: NCI-H747, NCI-H747, performed at Pharmaron, read-out: H747 (CRC-MSS) Antiproliferative IC50.
[3] abbreviates: HCT-116, circBRIP1, HCT116 cells, * Taqman assay was used, read-out: DHX9 Cellular Target Engagement EC50.

For the molecule `COC1CCN(c2ccc(-c3cc(C(=O)Nc4cc(Cl)cc(NS(C)(=O)=O)c4)cn3C)nc2)CC1` [Example 515, N-(3-chloro-5-methanesulfonamidophenyl)-5-[5-(4-methoxypiperidin-1-yl)pyridin-2-yl]-1-methyl-1H-pyrrole-3-carboxamide], the IC50 in the assay on LS411N cells (LS411N, performed at Pharmaron) worked out at 89.3 nM; with NCI-H747 cells (setting [2]), 8780 nM. In assay [1] (setting [3]), the EC50 was determined as 0.0216 µM.
The matching figures for `Cn1cc(C(=O)Nc2cc(Cl)cc(NS(C)(=O)=O)c2)cc1-c1ncc(N2CCC3(CC2)CC3(F)F)cc1F` [Example 518]: 203 nM, over 10000 nM and 0.0573 µM.
The matching figures for `Cc1cc(C(=O)Nc2cc(Cl)cc(NS(C)(=O)=O)c2)cn1-c1ccc(N2CCC3(CC3)C2)cn1` [Example 522]: 211 nM, over 10000 nM and 0.109 µM.
Consider `Cc1cc(C(=O)Nc2cc(Cl)cc(NS(C)(=O)=O)c2)cn1-c1ccc(N2C3CCC2CC3)cn1` [Example 523], for which the IC50 in the assay with LS411N cells (LS411N, performed at Pharmaron) came to 174 nM; with NCI-H747 cells (setting [2]), 5950 nM. Further, in assay [1] (setting [3]), the EC50 is 0.0572 µM.
The matching figures for `Cn1cc(C(=O)Nc2cc(Cl)cc(NS(C)(=O)=O)c2)cc1-c1ncc(N2CC(C(F)(F)F)C2)cc1F` [Example 524, N-(3-chloro-5-methanesulfonamidophenyl)-5-{3-fluoro-5-[3-(trifluoromethyl)azetidin-1-yl]pyridin-2-yl}-1-methyl-1H-pyrrole-3-carboxamide]: 138 nM, 6290 nM and 0.0766 µM.
The matching figures for `Cn1cc(C(=O)Nc2cc(Cl)cc(NS(C)(=O)=O)c2)cc1-c1ncc(N2CCC(F)(F)C2)cc1F` [Example 525]: 144 nM, 1350 nM and 0.043 µM.
The corresponding values for `Cn1cc(C(=O)Nc2cc(Cl)cc(NS(C)(=O)=O)c2)cc1-c1ncc(N2CCC(F)(F)C2)cn1` [Example 526] are 133 nM, over 10000 nM and 0.0293 µM.
As to `Cn1cc(C(=O)Nc2cc(Cl)cc(NS(C)(=O)=O)c2)cc1-c1ccc(N2CCC(F)(F)C2)cn1` [Example 527], the IC50 with LS411N cells (LS411N, performed at Pharmaron) turned out to be 65.4 nM; with NCI-H747 cells (setting [2]), 5580 nM. Moreover, in assay [1] (setting [3]), the EC50 came to 0.109 µM.
The matching figures for `COc1cc(N2CC(F)(F)C2)cnc1-c1cc(C(=O)Nc2cc(Cl)cc(NS(=O)(=O)CCO)c2)sc1C` [Example 528]: 1130 nM, 6960 nM and 0.0723 µM.
`Cc1sc(C(=O)Nc2cc(Cl)cc(NS(C)(=O)=O)c2)cc1-c1ncc(N2CC(F)(F)C2)cc1F` [Example 532, N-(3-chloro-5-methanesulfonamidophenyl)-4-[5-(3,3-difluoroazetidin-1-yl)-3-fluoropyridin-2-yl]-5-methylthiophene-2-carboxamide]: the IC50 in the assay with LS411N cells (LS411N, performed at Pharmaron) turned out to be 100 nM; in the assay with NCI-H747 cells (setting [2]), 4200 nM. Also, the EC50 in assay [1] (setting [3]) was determined as 0.0301 µM.
The matching figures for `Cc1sc(C(=O)Nc2cc(Cl)cc(NS(C)(=O)=O)c2)cc1-c1ccc(N2CC(F)(F)C2)cn1` [Example 533]: 73.9 nM, 4810 nM and 0.0145 µM.
The corresponding values for `Cc1sc(C(=O)Nc2cc(Cl)cc(NS(C)(=O)=O)c2)cc1-c1ncc(N2CC(F)(F)C2)cc1OC(C)C` [Example 534] are 55.4 nM, over 10000 nM and 0.0876 µM.
Regarding `COc1cc(N2CC(F)(F)C2)cnc1-c1cc(C(=O)Nc2cc(Cl)cc(NS(C)(=O)=O)c2)sc1C` [Example 535], the IC50 in the assay on LS411N cells (LS411N, performed at Pharmaron) is 93.3 nM; in the assay with NCI-H747 cells (setting [2]), over 10000 nM. Besides, the EC50 in assay [1] (setting [3]) worked out at 0.0047 µM.
The matching figures for `Cc1sc(C(=O)Nc2cc(Cl)cc(NS(C)(=O)=O)c2)cc1-c1ncc(N2CC(F)(F)C2)cc1OC(F)F` [Example 536]: 70.4 nM, 6800 nM and 0.049 µM.
The matching figures for `Cc1cc(N2CC(F)(F)C2)cnc1-c1cc(C(=O)Nc2cc(Cl)cc(NS(C)(=O)=O)c2)sc1C` [Example 537]: 82.8 nM, 6530 nM and 0.03 µM.
Consider `Cn1cc(C(=O)Nc2cc(Cl)cc(NS(C)(=O)=O)c2)cc1-c1ncc(F)cc1F` [Example 540, N-(3-chloro-5-methanesulfonamidophenyl)-5-(3,5-difluoropyridin-2-yl)-1-methyl-1H-pyrrole-3-carboxamide], for which the IC50 with LS411N cells (LS411N, performed at Pharmaron) was 175 nM; in the assay on NCI-H747 cells (setting [2]), 7910 nM. The EC50 in assay [1] (HCT-116, circBRIP1, HCT116 cells, cell carries no mark, SyBr or Taqman not indicated, read-out: DHX9 Cellular Target Engagement EC50) was determined as 0.0741 µM.
Take `Cc1sc(C(=O)Nc2cc(Cl)cc(NS(C)(=O)=O)c2)cc1-c1ncc(OC(C)C)cn1` [Example 541, N-(3-chloro-5-(methylsulfonamido)phenyl)-4-(5-isopropoxypyrimidin-2-yl)-5-methylthiophene-2-carboxamide]: the IC50 with LS411N cells amounted to 49.8 nM; in the assay on NCI-H747 cells (NCI-H747, read-out: H747 (CRC-MSS) Antiproliferative IC50), 6000 nM. The EC50 in assay [1] (HCT-116, read-out: DHX9 Cellular Target Engagement EC50 (μM)) amounted to 0.0377 µM.
In the case of `Cn1cc(C(=O)Nc2cc(Cl)cc(NS(C)(=O)=O)c2)cc1-c1ncc(F)cc1C#N` [Example 546], the IC50 with LS411N cells (LS411N, performed at Pharmaron) was 1090 nM; with NCI-H747 cells (setting [2]), over 10000 nM. For the same molecule, the EC50 in assay [1] (setting [3]) came out at 0.109 µM.
The corresponding values for `Cn1cc(C(=O)Nc2cc(Cl)cc(NS(C)(=O)=O)c2)cc1-c1c(F)cc(F)cc1F` [Example 547] are 173 nM, 5430 nM and 0.127 µM.
The matching figures for `CCS(=O)(=O)Nc1cc(Cl)cc(NC(=O)c2cc(-c3ncc(C)cc3F)n(C)c2)c1` [Example 548]: 226 nM, 6460 nM and 0.0804 µM.
The matching figures for `COc1cnc(-c2cc(C(=O)Nc3cc(Cl)cc(NS(C)(=O)=O)c3)cn2C)nc1` [Example 549]: 369 nM, over 10000 nM and 0.0483 µM.
With `COc1cc(C(F)(F)F)cnc1-c1cc(C(=O)Nc2cc(Cl)cc(NS(C)(=O)=O)c2)sc1C` [Example 550], the IC50 amounted to 352 nM in the assay on LS411N cells (LS411N, performed at Pharmaron) and 3640 nM in the assay with NCI-H747 cells (setting [2]). Moreover, the EC50 in assay [1] (setting [3]) worked out at 0.105 µM.
Consider `Cn1cc(C(=O)Nc2cc(Cl)cc(NS(C)(=O)=O)c2)cc1-c1cccc(N2CC(F)(F)C2)n1` [Example 551], for which the IC50 was 225 nM in the assay on LS411N cells (LS411N, performed at Pharmaron) and 3500 nM with NCI-H747 cells (setting [2]). Further, the EC50 in assay [1] (setting [3]) is 0.127 µM.
The corresponding values for `Cn1cc(C(=O)Nc2cc(Cl)cc(NS(C)(=O)=O)c2)cc1-c1ncc(OC(F)F)cn1` [Example 553] are 211 nM, over 10000 nM and 0.0716 µM.
The corresponding values for `Cn1cc(C(=O)Nc2cc(Cl)cc(NS(C)(=O)=O)c2)cc1-c1ccc(OC(C)(C)C)cn1` [Example 555] are 121 nM, 4470 nM and 0.0466 µM.
As to `Cn1cc(C(=O)Nc2cc(Cl)cc(NS(C)(=O)=O)c2)cc1-c1ncc(OC(C)(C)C)cn1` [Example 556], the IC50 in the assay with LS411N cells (LS411N, performed at Pharmaron) turned out to be 74.9 nM; with NCI-H747 cells (setting [2]), 4520 nM. Also, in assay [1] (setting [3]), the EC50 stood at 0.0545 µM.
With `Cn1cc(C(=O)Nc2cc(Cl)cc(NS(C)(=O)=O)c2)cc1-c1ncc(OC(C)(C)C)cc1F` [Example 557], the IC50 in the assay with LS411N cells (LS411N, performed at Pharmaron) stood at 131 nM; in the assay with NCI-H747 cells (setting [2]) it was 2300 nM. The EC50 in assay [1] (setting [3]) is 0.0926 µM.
The corresponding values for `Cc1sc(C(=O)Nc2cc(Cl)cc(NS(C)(=O)=O)c2)cc1-c1ncc(OC(C)(C)C)cn1` [Example 559] are 74 nM, 3370 nM and 0.0425 µM.
The corresponding values for `CS(=O)(=O)Nc1cc(Cl)cc(NC(=O)c2c[nH]c(-c3ncc(F)cc3F)c2)c1` [Example 560] are 145 nM, over 10000 nM and 0.148 µM.
The corresponding values for `CCS(=O)(=O)Nc1cc(Cl)cc(NC(=O)c2cc(-c3ncc(OC(C)C)cn3)c(C)s2)c1` [Example 565] are 58.2 nM, 3010 nM and 0.0565 µM.
For the molecule `CCS(=O)(=O)Nc1cc(Cl)cc(NC(=O)c2cc(-c3ccc(F)cn3)n(C)c2)c1` [Example 579], the IC50 in the assay with LS411N cells (LS411N, performed at Pharmaron) is 329 nM; with NCI-H747 cells (setting [2]) it was over 10000 nM. In addition, the EC50 in assay [1] (setting [3]) came to 0.103 µM.
Regarding `Cc1sc(C(=O)Nc2cc(Cl)cc(NS(C)(=O)=O)c2)cc1-c1ncc(C#N)cn1` [Example 585], the IC50 in the assay on LS411N cells (LS411N, performed at Pharmaron) was 208 nM; in the assay with NCI-H747 cells (setting [2]) it was over 10000 nM. Moreover, in assay [1] (setting [3]), the EC50 came to 0.0651 µM.
As to `Cc1sc(C(=O)Nc2cc(Cl)cc(NS(C)(=O)=O)c2)cc1-c1ccc(N2CCN(C(=O)C3CC3)CC2)cn1` [Example 590, N-(3-chloro-5-methanesulfonamidophenyl)-4-[5-(4-cyclopropanecarbonylpiperazin-1-yl)pyridin-2-yl]-5-methylthiophene-2-carboxamide], the IC50 is 533 nM in the assay on LS411N cells (LS411N, performed at Pharmaron) and over 10000 nM with NCI-H747 cells (setting [2]). The EC50 in assay [1] (setting [3]) stood at 0.0337 µM.
The matching figures for `COC(=O)N1CCN(c2ccc(-c3cc(C(=O)Nc4cc(Cl)cc(NS(C)(=O)=O)c4)cn3C)nc2)CC1` [Example 596]: 172 nM, 9880 nM and 0.038 µM.
The corresponding values for `Cn1cc(C(=O)Nc2cc(Cl)cc(NS(C)(=O)=O)c2)cc1-c1ncc(N2CC(F)(F)C2)cn1` [Example 597] are 164 nM, over 10000 nM and 0.0648 µM.
On to `Cn1cc(C(=O)Nc2cc(Cl)cc(NS(C)(=O)=O)c2)cc1-c1ncc(N2CC(F)C2)cn1` [Example 598], for which the IC50 is 174 nM in the assay with LS411N cells (LS411N, performed at Pharmaron) and over 10000 nM in the assay on NCI-H747 cells (setting [2]). Also, the EC50 in assay [1] (setting [3]) is 0.0506 µM.
The corresponding values for `Cn1cc(C(=O)Nc2cc(Cl)cc(NS(C)(=O)=O)c2)cc1-c1ncc(N2CC(F)(F)C2)cc1F` [Example 599] are 149 nM, 4330 nM and 0.0378 µM.
